Test results reported in US9951149B2, “Reversible heparin molecules and methods of making and using the same” (The University of North Carolina at Chapel Hill, priority 2013, dated 2018).
“Also recorded” adds a separate entry of the source.

Columns and labels:
[1] = Clearance of LMWHs in vivo: retention of 35S-labeled material in mouse liver; conditions: BALB/c mice, lateral tail vein injection, 12 min (FIG. 4A)
Procedure: The mouse experiment was approved by the University of Nebraska Animal Care and Use Committees. Five to six week old BALB/c mice (Harlan Laboratories, Indianapolis, Ind., United States of America) weighing 18-20 g were anesthetized in a small 34° C. chamber with a flow of oxygen containing 4% isoflurane. Once the mice were unconscious, they were individually placed on a heated pad with a nose cone fitted over their snout with a constant flow of oxygen containing 2% isoflurane. A specific amount of ^35S-labeled LMWH Compound, LMWH, or UFH was injected via the lateral tail vein using a 27G1/2 needle mounted on a 1 ml syringe. The labeled material was allowed to circulate in the blood for 12 min while the mouse lay unconscious. The abdominal cavity was exposed by incision and the liver was collected, washed, and weighed. Approximately 100 mg from each of the lobes was homogenized in 0.75 ml 1% NP-40 and then centrifuged at 12,000×g for 2 min to pellet insoluble material. The supernatant was then added to 4 ml scintillation fluid, mixed for 30 min by rocking and then radioactivity was assessed by a Beckman Coulter LS6500 scintillation counter. The data is presented as the percentage of CPM in total liver divided by total CPM injected±standard error of 3-5 mice per ligand.

human factor Xa [2] = experiment: Neutralization of LMWHs by protamine in vitro (anti-Xa activity); format: biochemical; conditions: human plasma, protamine 0-90 μg/ml (FIG. 4B)
Procedure: Determination of the in vitro and ex vivo anti-Xa activity. Assays were based on a previously published method (Zhang, L. et al., J. Biol. Chem. 276, 42311-42321, 2001; Duncan et al., Biochim Biophys Acta 1671, 34-43, 2004). Briefly, human factor Xa (Enzyme Research Laboratories, South Bend, Ind., United States of America) was diluted to 50 Uml^−1 with PBS. The chromogenic substrates, S-2765 was from Diapharma (Westchester, Ohio, United States of America) and made up at 1 mgml^−1 in water. UFH (from US Pharmacopea), LOVENOX® (from local pharmacy) and LMWH Compounds 1 to 5) was dissolved in PBS at various concentrations (3 to 600 μgml^−1). The reaction mixture, which consisted of 20 μl of human plasma (Sigma-Aldrich, St. Louis, Mo., United States of America) and 8 μl of the solution containing the sample, was incubated at room temperature for 5 min. Factor Xa (100 μl) was then added. After incubating at room temperature for 4 min, 30 μl of S-2765 substrate was added. The absorbance of the reaction mixture was measured at 405 nm continuously for 5 min. The absorbance values were plotted against the reaction time. The initial reaction rates as a function of concentration were used to calculate the IC50 values.
The procedures followed a previous publication (Sundaram, M. et al., Proc. Natl. Acad. Sci. 100, 651-656, 2003). The LMWH Compounds and protamine chloride (Sigma-Aldrich) were dissolved in PBS. The concentrations of the LMWH samples for each Compound were different because each Compound has different IC50 value for the anti-Xa activity. […] The mixture (30 μl) was then subjected to anti-Xa activity measurement as described above.

mice = experiment: Mouse model of tail bleeding; format: in vivo; conditions: for effect of protamine on primary bleeding time after tail transection: protamine 15 mgkg^−1 i.v. (FIG. 4D)
Procedure: Under isoflurane anesthesia, mice (n=8 per group) were administered with PBS or Compound 5 (0.6 mgkg^−1) subcutaneously, 30 min later PBS or protamine (15 mgkg^−1) was administered via retro-orbital intravenous injection. After 5 minutes the distal part of the tail was transected at the constant diameter (1.5 mm), approximately 3-4 mm from the end. That results in both arterial and venous bleeding. […] The primary bleeding time was defined as the time to the first cessation of bleeding. Subsequently, time for each reinitiated bleeding was also recorded, and used to calculate total bleeding time. One mouse in Compound 5/protamine group received an inaccurate protamine injection and was excluded from the study. The blood collected in PBS was used to calculate total blood volume loss. Formic acid was added to samples (70:30 ratio) and absorbance was measured at 405 nm. A standard curve was generated by mixing […] of PBS with known amounts of blood. Statistical analysis between each group was performed by one-way ANOVA (GraphPad Prism Software, La Jolla, Calif., United States of America) followed by Bonferroni's multiple comparison test.

human factor Xa [3] = experiment: Neutralization of LMWHs by protamine in mice, ex vivo anti-Xa activity in mouse plasma; conditions: C57BL/6J mice, s.c. test compound, protamine 15 mgkg^−1 i.v. 30 min later, plasma 5 min later (FIG. 4C)
Procedure: The study was performed on eight week old male C57BL/6J mice (Jackson Laboratories, Bar Harbor, Me., United States of America) (n=4 per group). The mouse experiments were approved by the UNC Animal Care and Use Committees and complied with National Institutes of Health guidelines. Under isoflurane anesthesia, mice were subcutaneously administered with PBS, UFH (3 mgkg^−1), LOVENOX® (3 mgkg^−1) or Compound 5 (0.6 mgkg^−1) 30 min prior to a protamine administration. […] To obtain mouse plasma, blood samples were centrifuged at 4,000 g for 15 min at 4° C. Mouse plasma was then used to determine anti-Xa activity. Ex vivo analysis of anti-Xa activity was done similar to the in vitro study described above. Briefly, plasma (10 μl) from different groups of mice was incubated with 80 nM human factor Xa (10 μl) at room temperature for 4 minutes and S-2765 (1 mgml^−1, 30 μl) was then added. The anti-Xa activity in the mouse plasma from the PBS injected mice was defined as 100%. Statistical analysis for multiple comparisons was performed by two-way ANOVA with Bonferroni's post-hoc test (GraphPad Prism Software, La Jolla, Calif., United States of America).

Row | Structure (SMILES) | retention in the liver [1] | in vitro reversibility of anti-Xa activity by protamine (human factor Xa [2]) | effect of protamine on blood loss after tail transection (mice; mice, Compound 5 0.6 mgkg^−1 s.c., protamine 15 mgkg^−1 i.v.) | effect of protamine on primary bleeding time after tail transection (mice; mice, Compound 5 0.6 mgkg^−1 s.c.) | effect of protamine on primary bleeding time after tail transection (mice; mice, Compound 5 0.6 mgkg^−1 s.c., listed as compound 5) | reversal of anti-Xa activity in an in vivo experiment (mice; mouse tail bleeding model, protamine) | ex vivo reversibility of anti-FXa activity by protamine (human factor Xa [3])
1 | O=C(O)C1OC(OC2C(COS(=O)(=O)O)OC(OC3C(C(=O)O)OC(OC4C(COS(=O)(=O)O)OC(OC5C(C(=O)O)OC(Oc6ccc([N+](=O)[O-])cc6)C(O)C5O)C(NS(=O)(=O)O)C4O)C(OS(=O)(=O)O)C3O)C(NS(=O)(=O)O)C2OS(=O)(=O)O)C(O)C(O)C1OC1OC(COS(=O)(=O)O)C(O)C(O)C1NS(=O)(=O)O (stereo not drawn) [Compound 1] | very low level of retention in the liver | Unlike Compounds 1, 2, and 3, Compound 4 was partially reversed by protamine |  |  |  |  | 
2 | O=C(O)C1OC(OC2C(COS(=O)(=O)O)OC(OC3C(C(=O)O)OC(OC4C(COS(=O)(=O)O)OC(OC5C(C(=O)O)OC(OC6C(COS(=O)(=O)O)OC(OC7C(C(=O)O)OC(Oc8ccc([N+](=O)[O-])cc8)C(O)C7O)C(NS(=O)(=O)O)C6O)C(OS(=O)(=O)O)C5O)C(NS(=O)(=O)O)C4O)C(OS(=O)(=O)O)C3O)C(NS(=O)(=O)O)C2OS(=O)(=O)O)C(O)C(O)C1OC1OC(COS(=O)(=O)O)C(O)C(O)C1NS(=O)(=O)O (stereo not drawn) [Compound 2] | very low level of retention in the liver | Unlike Compounds 1, 2, and 3, Compound 4 was partially reversed by protamine |  |  |  |  | 
3 | O=C(O)C1OC(OC2C(COS(=O)(=O)O)OC(OC3C(C(=O)O)OC(OC4C(COS(=O)(=O)O)OC(OC5C(C(=O)O)OC(OC6C(COS(=O)(=O)O)OC(OC7C(C(=O)O)OC(OC8C(COS(=O)(=O)O)OC(OC9C(C(=O)O)OC(Oc%10ccc([N+](=O)[O-])cc%10)C(O)C9O)C(NS(=O)(=O)O)C8O)C(OS(=O)(=O)O)C7O)C(NS(=O)(=O)O)C6O)C(OS(=O)(=O)O)C5O)C(NS(=O)(=O)O)C4O)C(OS(=O)(=O)O)C3O)C(NS(=O)(=O)O)C2OS(=O)(=O)O)C(O)C(O)C1OC1OC(COS(=O)(=O)O)C(O)C(O)C1NS(=O)(=O)O (stereo not drawn) [Compound 3] | retained in the liver; also recorded: internalized in mice liver | Unlike Compounds 1, 2, and 3, Compound 4 was partially reversed by protamine |  |  |  |  | 
4 | CC(=O)NC1C(OC2C(C(=O)O)OC(OC3C(COS(=O)(=O)O)OC(OC4C(C(=O)O)OC(OC5C(COS(=O)(=O)O)OC(OC6C(C(=O)O)OC(OC7C(COS(=O)(=O)O)OC(OC8C(C(=O)O)OC(OC9C(COS(=O)(=O)O)OC(OC%10C(C(=O)O)OC(OC%11C(COS(=O)(=O)O)OC(OC%12C(C(=O)O)OC(Oc%13ccc([N+](=O)[O-])cc%13)C(O)C%12O)C(NS(=O)(=O)O)C%11O)C(OS(=O)(=O)O)C%10O)C(NS(=O)(=O)O)C9O)C(OS(=O)(=O)O)C8O)C(NS(=O)(=O)O)C7O)C(OS(=O)(=O)O)C6O)C(NS(=O)(=O)O)C5O)C(OS(=O)(=O)O)C4O)C(NS(=O)(=O)O)C3OS(=O)(=O)O)C(O)C2O)OC(COS(=O)(=O)O)C(O)C1O (stereo not drawn) [Compound 4] | retained in the liver; also recorded: internalized in mice liver | partially reversed by protamine |  |  |  |  | 
5 | CC(=O)NC1C(OC2C(C(=O)O)OC(OC3C(COS(=O)(=O)O)OC(OC4C(C(=O)O)OC(OC5C(COS(=O)(=O)O)OC(OC6C(C(=O)O)OC(OC7C(COS(=O)(=O)O)OC(OC8C(C(=O)O)OC(OC9C(COS(=O)(=O)O)OC(OC%10C(C(=O)O)OC(OC%11C(COS(=O)(=O)O)OC(OC%12C(C(=O)O)OC(Oc%13ccc([N+](=O)[O-])cc%13)C(O)C%12O)C(NS(=O)(=O)O)C%11O)C(OS(=O)(=O)O)C%10O)C(NS(=O)(=O)O)C9OS(=O)(=O)O)C(OS(=O)(=O)O)C8O)C(NS(=O)(=O)O)C7O)C(OS(=O)(=O)O)C6O)C(NS(=O)(=O)O)C5O)C(OS(=O)(=O)O)C4O)C(NS(=O)(=O)O)C3OS(=O)(=O)O)C(O)C2O)OC(COS(=O)(=O)O)C(O)C1O (stereo not drawn) [Compound 5] | retained in the liver; also recorded: internalized in mice liver | same protamine reversibility as UFH and greater reversibility than LOVENOX®; also recorded: can be reversed by protamine | reduced the blood loss | protamine shortened the primary bleeding time | significantly shortened the primary bleeding time | can be reversed | reversible
